How the values were obtained:
[1] = test system: αS452fs (co-expressed with βγ-ENaC); assay: Whole-cell patch clamp, αS452fs + WT βγ; format: cell-based, human; settings: read-out: EC50, solnatide, HEK-293, whole-cell, -100 mV, n = 5, p < 0.01 vs WT
Description: Point mutations of α-, β-, γ- and δ-hENaC and PHA1B frameshift mutations of α-hENaC were prepared with the QuikChange Lightning Site-Directed Mutagenesis Kit (Agilent Technologies, CA, USA). Mutagenic primers were designed individually with the Primer Design Program provided on the producer’s website or for the frameshift mutations the same base changes as reported in patients (see Table 2) were performed. Primers were ordered from Sigma-Aldrich, Vienna, Austria.
HEK-293 cells were transfected 1 day after cell seeding using X-tremeGENE HP DNA transfection reagent (Roche Diagnostics, Mannheim, Germany) according to the manufacturer’s protocol. A set of WT or mutant αβγ- or δβγ-hENaC, or α-, β-, γ-, or δ-hENaC alone was used, and the ratio of DNA to transfection reagent was 1:3. The expression was highest 48–72 h after transfection.
Electrophysiological experiments were performed as described in detail by Shabbir et al. ([16]). […] Currents were recorded with the patch clamp method in the whole-cell mode. The chamber contained 1 ml of the bath solution of the following composition (in mM): 145 NaCl, 2.7 KCl, 1.8 CaCl2, 2 MgCl2, 5.5 glucose, and 10 HEPES, adjusted to pH 7.4 with 1 M NaOH solution. Micropipettes were pulled from thin-walled borosilicate glass capillaries (Harvard Apparatus, Holliston, MA, USA) with a DMZ Zeitz Puller to obtain electrode resistances ranging from 2 to 5 MΩ. […]

αL576XβD546XγD556X = assay: Amiloride-sensitive current, αL576XβD546XγD556X; format: cell-based, human; settings: lacking all carboxyl termini, preliminary experiments
αP197fs = assay: Membrane abundance of αP197fs; format: cell-based, human; settings: 200 nM, relative to WT control (=1), own control 1.18 ± 0.05, p < 0.01 vs control
Description: (§1) Cell surface biotinylation was performed as previously described ([26]). In brief, A549 cells or transiently transfected HEK-293 cells were grown in 10 cm dishes in 37°C, 5% CO2 incubator in DMEM medium supplemented with 5% FBS. […] Medium was aspirated, and then cells were washed twice with 10 ml ice-cold phosphate-buffered saline (PBS), covered with 2.5 mg EZ-Link Sulfo-NHS-SS-Biotin (Thermo Scientific, Rockford, USA), dissolved in 10 ml ice-cold PBS, and incubated at 4°C with gentle agitation for 30 min. Fifty milliliters of quenching solution were added to cells; then cells were scraped in solution and transferred to fresh 50 ml tube. Cell suspension was centrifuged at 500 × g for 3 min. Supernatant was discarded, and 5 ml of Tris-buffered saline (TBS) was added to the cell pellet. The cell pellet was resuspended and centrifuged at 500 × g for 3 min. Supernatant was discarded and cell pellet was resuspended in lysis buffer containing protease inhibitor cocktail (10 µM pepstatin A, 10 µM phenylmethylsulfonyl fluoride, and 10 µM leupeptin) and transferred to fresh 1.5 ml centrifuge tube. Cell pellet was then homogenized on ice by ultrasonication using 1 s bursts and incubated on ice for at least 30 min. Intact cells and nuclei were pelleted by centrifugation at 10,000 × g for 2 min under cooling conditions. […] Exposed films were scanned and quantified using ImageJ (NIH, MD, USA). […]

[2] = test system: WT or mutant frameshift α-ENaC; assay: Membrane abundance of α-ENaC, WT or mutant frameshift (overall); format: cell-based, human; settings: HEK-293, WT or mutant frameshift α-ENaC
Description: as §1

A549 cells = settings: cited from earlier work

C[C@@H]1NC(=O)CNC(=O)[C@H](CCC(=O)O)NC(=O)[C@@H]2CCCN2C(=O)[C@H]([C@@H](C)O)NC(=O)[C@H](CCC(=O)O)NC(=O)[C@H](CCCNC(=N)N)NC(=O)[C@H](CCC(N)=O)NC(=O)CNC(=O)[C@@H](N)CSSC[C@@H](C(=O)O)NC(=O)[C@H](Cc2ccc(O)cc2)NC(=O)[C@H](Cc2c[nH]c3ccccc23)NC(=O)[C@@H]2CCCN2C(=O)[C@H](CCCCN)NC(=O)[C@H](C)NC(=O)[C@H](CCC(=O)O)NC1=O [solnatide, L-cysteine, L-cysteinylglycyl-L-glutaminyl-L-arginyl-L-α-glutamyl-L-threonyl-L-prolyl-L-α-glutamylglycyl-L-alanyl-L-α-glutamyl-L-alanyl-L-lysyl-L-prolyl-L-tryptophyl-L-tyrosyl-, cyclic (1→17)-disulfide]
EC50 [1]: 68.5 ± 4.1 nM | Effect of solnatide on current (words) (αL576XβD546XγD556X): an even slighter, non-significant increase of current | Membrane abundance, solnatide 5 min (αP197fs): 1.33 ± 0.07 | Membrane abundance of α-ENaC [2]: transient and significant increase in membrane abundance of α-ENaC | Increase in single channel parameters after PNGase F (A549 cells; A549 cells, PNGase F pretreated): completely abolished in PNGase F pretreated cells | Single channel open probability, mean open time, number and duration of bursts (A549 cells; A549 cells): significantly increased | Effect on current, A549 cells (A549 cells; endogenous α-, β-, γ-, δ-subunits): current activating effect

From article PMC5447021, “TNF Lectin-Like Domain Restores Epithelial Sodium Channel Function in Frameshift Mutants Associated with Pseudohypoaldosteronism Type 1B” (Frontiers in Immunology, 2017)
